Results reported in US6482921B1, “Uridyl peptide antibiotic (UPA) derivatives, their synthesis and use” (Essential Therapeutics, Inc., priority 1999, dated 2002).
In brackets after ≈: the same amount, converted by molar mass.

Assays:
[1] = test system: Pseudomonas aeruginosa PAM 1020; assay: MIC broth microdilution, P. aeruginosa PAM 1020 (wild type); format: cell-based; settings: P. aeruginosa PAM 1020
[2] = test system: Staphylococcus aureus ATCC 29213; assay: MIC broth microdilution, S. aureus ATCC 29213 (wild type); format: cell-based; settings: S. aureus ATCC 29213
[3] = test system: Mycobacterium fortuitum ATCC 6841; assay: MIC broth microdilution, M. fortuitum ATCC 6841; settings: 72 hours at 35° C., CAMHB
[4] = test system: Pasteurella multocida pm002; assay: MIC broth microdilution, P. multocida pm002 (wild type); format: cell-based
[5] = test system: Pseudomonas aeruginosa PAM 1323; assay: MIC broth microdilution, P. aeruginosa PAM 1323 (medium level UPA resistance); format: cell-based
[6] = test system: Pseudomonas aeruginosa PAM 1135; assay: MIC broth microdilution, P. aeruginosa PAM 1135 (high level UPA resistance); format: cell-based; settings: P. aeruginosa PAM 1135 UPA1^r
[7] = test system: Staphylococcus aureus 8325-4; assay: MIC broth microdilution, S. aureus 8325-4 (wild type); format: cell-based; settings: S. aureus 8325-4
[8] = test system: Pseudomonas aeruginosa PAM 1154; assay: MIC broth microdilution, P. aeruginosa PAM 1154 (OprM::Hg); format: cell-based; settings: P. aeruginosa PAM 1154 OprM::Hg
[9] = test system: Escherichia Coli MC 4100 AcrAB UPA3r; assay: MIC broth microdilution, E. coli MC 4100 AcrAB UPA3r (ΔAcrAB, UPA resistant); format: cell-based; settings: E. coli AcrAB UPA3^r
[10] = test system: Escherichia Coli MC 4100 AcrAB; assay: MIC broth microdilution, E. coli MC 4100 AcrAB (ΔAcrAB); format: cell-based; settings: E. coli AcrAB
Escherichia Coli MC 4100 = assay: MIC broth microdilution, E. coli MC 4100 (wild type); format: cell-based; settings: E. coli MC 4100
[11] = test system: Mycobacterium smegmatis ATCC 19420; assay: MIC broth microdilution, M. smegmatis ATCC 19420; settings: 72 hours at 35° C., CAMHB

## CC(C)CC(N)C(=O)N(C)C(C)C(NC(=O)C(Cc1ccc(F)cc1)NC(=O)NC(Cc1c[nH]c2ccccc12)C(=O)O)C(=O)NCC1CC(O)C(n2ccc(=O)[nH]c2=O)O1 [Compound 117, 1-[5′-[(2S,3S)-N^2-[N-[[(1S)-1-Carboxy-2-indol-3-ylethyl]carbamoyl]-L-4-fluorophenylalanyl]-N^3-L-leucyl-N^3-methyl-2,3-diaminobutyramido]-3′,5′-dideoxy-α-L-arabinofuranosyl]uracil]
[1]
  MIC (μg/ml) Broth microdilution: 64 µg/mL (≈ 75.3 µM)
[2]
  MIC (μg/ml) Broth microdilution: >512 µg/mL
[3]
  MIC Broth microdilution M. fortuitum ATCC 6841: 64 µg/mL (≈ 75.3 µM)
[4]
  MIC (μg/ml) Broth microdilution: 256 µg/mL (≈ 301 µM)
[5]
  MIC (μg/ml) Broth microdilution: >512 µg/mL
[6]
  MIC (μg/ml) Broth microdilution: >512 µg/mL
[7]
  MIC (μg/ml) Broth microdilution: >512 µg/mL
[8]
  MIC (μg/ml) Broth microdilution: 64 µg/mL (≈ 75.3 µM)
[9]
  MIC (μg/ml) Broth microdilution: 32 µg/mL (≈ 37.7 µM)
[10]
  MIC (μg/ml) Broth microdilution: <1 µg/mL
Escherichia Coli MC 4100
  MIC (μg/ml) Broth microdilution: >512 µg/mL
[11]
  MIC Broth microdilution M. smegmatis ATCC19420: 8 µg/mL (≈ 9.41 µM)

## C[C@@H]([C@H](NC(=O)[C@H](Cc1ccccc1)NC(=O)N[C@@H](Cc1c[nH]c2ccccc12)C(=O)O)C(=O)NC[C@H]1C[C@@H](O)[C@H](n2ccc(=O)[nH]c2=O)O1)N(C)C(=O)CN [Compound 128, 1-[5′-[(2S,3S)-N^2-[N-[[(1S)-1-Carboxy-2-indol-3-ylethyl]carbamoyl]-L-phenylalanyl]-N^3-glycyl-N^3-methyl-2,3-diaminobutyramido]-3′,5′-dideoxy-α-L-arabinofuranosyl]uracil]
[1]
  MIC (μg/ml) Broth microdilution: 8 µg/mL (≈ 10.3 µM)
[2]
  MIC (μg/ml) Broth microdilution: >512 µg/mL
[3]
  MIC Broth microdilution M. fortuitum ATCC 6841: 64 µg/mL (≈ 82.5 µM)
[4]
  MIC (μg/ml) Broth microdilution: 64 µg/mL (≈ 82.5 µM)
[5]
  MIC (μg/ml) Broth microdilution: >512 µg/mL
[6]
  MIC (μg/ml) Broth microdilution: >512 µg/mL
[7]
  MIC (μg/ml) Broth microdilution: 256 µg/mL (≈ 330 µM)
[8]
  MIC (μg/ml) Broth microdilution: <1 µg/mL
[9]
  MIC (μg/ml) Broth microdilution: 16 µg/mL (≈ 20.6 µM)
[10]
  MIC (μg/ml) Broth microdilution: 2 µg/mL (≈ 2.58 µM)
Escherichia Coli MC 4100
  MIC (μg/ml) Broth microdilution: 256 µg/mL (≈ 330 µM)
[11]
  MIC Broth microdilution M. smegmatis ATCC19420: 4 µg/mL (≈ 5.16 µM)

## CC(N)C(=O)N(C)C(C)C(NC(=O)C(Cc1csc2ccccc12)NC(=O)NC(Cc1ccc(O)cc1)C(=O)O)C(=O)NCC1CC(O)C(n2ccc(=O)[nH]c2=O)O1 [Compound 130, 1-[5′-[(2S,3S)-N^3-L-Alanyl-N^2-[N-[[(1S)-1-carboxy-4-hydroxyphenethyl]carbamoyl]-L-benzothienylalanyl]-N^3-methyl-2,3-diaminobutyramidol-3′,5′-dideoxy-α-L-arabinofuranosyl]uracil]
[1]
  MIC (μg/ml) Broth microdilution: 64 µg/mL (≈ 77.8 µM)
[2]
  MIC (μg/ml) Broth microdilution: 128 µg/mL (≈ 156 µM)
[3]
  MIC Broth microdilution M. fortuitum ATCC 6841: 32 µg/mL (≈ 38.9 µM)
[4]
  MIC (μg/ml) Broth microdilution: 512 µg/mL (≈ 622 µM)
[5]
  MIC (μg/ml) Broth microdilution: >512 µg/mL
[6]
  MIC (μg/ml) Broth microdilution: >512 µg/mL
[7]
  MIC (μg/ml) Broth microdilution: 256 µg/mL (≈ 311 µM)
[8]
  MIC (μg/ml) Broth microdilution: 16 µg/mL (≈ 19.4 µM)
[9]
  MIC (μg/ml) Broth microdilution: 16 µg/mL (≈ 19.4 µM)
[10]
  MIC (μg/ml) Broth microdilution: 8 µg/mL (≈ 9.72 µM)
Escherichia Coli MC 4100
  MIC (μg/ml) Broth microdilution: 64 µg/mL (≈ 77.8 µM)
[11]
  MIC Broth microdilution M. smegmatis ATCC19420: 8 µg/mL (≈ 9.72 µM)

## CSCCC(N)C(=O)N(C)C(C)C(NC(=O)C(CCSC)NC(=O)NC(Cc1c[nH]c2ccccc12)C(=O)O)C(=O)NCC1CC(O)C(n2ccc(=O)[nH]c2=O)O1 [Compound 162, 1-[5′-[(2S,3S)-N^2-[N-[[(1S)-1-Carboxy-2-indol-3-ylethyl]carbamoyl]-L-methionyl]-N^3-L-methionyl-N^3-methyl-2,3-diaminobutyramido]-3′,5′-dideoxy-α-L-arabinofuranosyl]uracil]
[1]
  MIC (μg/ml) Broth microdilution: 64 µg/mL (≈ 76.7 µM)
[2]
  MIC (μg/ml) Broth microdilution: >512 µg/mL
[4]
  MIC (μg/ml) Broth microdilution: 512 µg/mL (≈ 614 µM)
[5]
  MIC (μg/ml) Broth microdilution: 256 µg/mL (≈ 307 µM)
[6]
  MIC (μg/ml) Broth microdilution: 256 µg/mL (≈ 307 µM)
[7]
  MIC (μg/ml) Broth microdilution: >512 µg/mL
[8]
  MIC (μg/ml) Broth microdilution: 16 µg/mL (≈ 19.2 µM)
[9]
  MIC (μg/ml) Broth microdilution: 512 µg/mL (≈ 614 µM)
[10]
  MIC (μg/ml) Broth microdilution: 16 µg/mL (≈ 19.2 µM)
Escherichia Coli MC 4100
  MIC (μg/ml) Broth microdilution: 512 µg/mL (≈ 614 µM)

## CC(C(NC(=O)C(Cc1ccccc1)NC(=O)NC(Cc1c[nH]c2ccccc12)C(=O)O)C(=O)NCC1CC(O)C(n2ccc(=O)[nH]c2=O)O1)N(C)C(=O)C(N)Cc1ccc(O)cc1 [Compound 163, 1-[5′-[(2S,3S)-N^2-[N-[[(1S)-1-Carboxy-2-indol-3-ylethyl]carbamoyl]-L-phenylalanyl]-N^3-L-tyrosyl-N^3-methyl-2,3-diaminobutyramido]-3′,5′-dideoxy-α-L-arabinofuranosyl]uracil]
[1]
  MIC (μg/ml) Broth microdilution: 16 µg/mL (≈ 18.1 µM)
[2]
  MIC (μg/ml) Broth microdilution: >512 µg/mL
[4]
  MIC (μg/ml) Broth microdilution: 256 µg/mL (≈ 290 µM)
[5]
  MIC (μg/ml) Broth microdilution: 256 µg/mL (≈ 290 µM)
[6]
  MIC (μg/ml) Broth microdilution: 256 µg/mL (≈ 290 µM)
[7]
  MIC (μg/ml) Broth microdilution: >512 µg/mL
[8]
  MIC (μg/ml) Broth microdilution: 16 µg/mL (≈ 18.1 µM)
[9]
  MIC (μg/ml) Broth microdilution: 512 µg/mL (≈ 581 µM)
[10]
  MIC (μg/ml) Broth microdilution: 4 µg/mL (≈ 4.54 µM)
Escherichia Coli MC 4100
  MIC (μg/ml) Broth microdilution: 512 µg/mL (≈ 581 µM)

## CN[C@@H](C)[C@H](NC(=O)[C@H](C)NC(=O)N[C@@H](Cc1c[nH]c2ccccc12)C(=O)O)C(=O)NC[C@H]1C[C@@H](O)[C@H](n2ccc(=O)[nH]c2=O)O1 [Compound 165, 1-[5′-[(2S,3S)-N^2-[N-[[(1S)-1-Carboxy-2-indol-3-ylethyl]carbamoyl]-L-alanyl]-N^3-methyl-2,3-diaminobutyramido]-3′,5′-dideoxy-α-L-arabinofuranosyl]uracil]
[1]
  MIC (μg/ml) Broth microdilution: >512 µg/mL
[2]
  MIC (μg/ml) Broth microdilution: >512 µg/mL
[4]
  MIC (μg/ml) Broth microdilution: 256 µg/mL (≈ 398 µM)
[5]
  MIC (μg/ml) Broth microdilution: >512 µg/mL
[6]
  MIC (μg/ml) Broth microdilution: >512 µg/mL
[7]
  MIC (μg/ml) Broth microdilution: >512 µg/mL
[8]
  MIC (μg/ml) Broth microdilution: 128 µg/mL (≈ 199 µM)
[9]
  MIC (μg/ml) Broth microdilution: 128 µg/mL (≈ 199 µM)
[10]
  MIC (μg/ml) Broth microdilution: 4 µg/mL (≈ 6.22 µM)
Escherichia Coli MC 4100
  MIC (μg/ml) Broth microdilution: >512 µg/mL

## CSCCC(NC(=O)NC(Cc1c[nH]c2ccccc12)C(=O)O)C(=O)NC(C(=O)NCC1CC(O)C(n2ccc(=O)[nH]c2=O)O1)C(C)N(C)C(=O)C(C)N [Compound 167, 1-[5′-[(2S,3S)-N^3-L-Alanyl-N^2-[N-[[(1S)-1-carboxy-2-indol-3-ylethyl]carbamoyl]-L-methionyl]-N^3-methyl-2,3-diaminobutyramido]-3′,5′-dideoxy-α-L-arabinofuranosyl]uracil]
[1]
  MIC (μg/ml) Broth microdilution: 512 µg/mL (≈ 662 µM)
[2]
  MIC (μg/ml) Broth microdilution: >512 µg/mL
[4]
  MIC (μg/ml) Broth microdilution: 128 µg/mL (≈ 165 µM)
[5]
  MIC (μg/ml) Broth microdilution: 512 µg/mL (≈ 662 µM)
[6]
  MIC (μg/ml) Broth microdilution: >512 µg/mL
[7]
  MIC (μg/ml) Broth microdilution: >512 µg/mL
[8]
  MIC (μg/ml) Broth microdilution: 256 µg/mL (≈ 331 µM)
[9]
  MIC (μg/ml) Broth microdilution: 128 µg/mL (≈ 165 µM)
[10]
  MIC (μg/ml) Broth microdilution: 4 µg/mL (≈ 5.17 µM)
Escherichia Coli MC 4100
  MIC (μg/ml) Broth microdilution: 512 µg/mL (≈ 662 µM)

## CSCCC(N)C(=O)N(C)C(C)C(NC(=O)C(C)NC(=O)NC(Cc1c[nH]c2ccccc12)C(=O)O)C(=O)NCC1CC(O)C(n2ccc(=O)[nH]c2=O)O1 [Compound 168, 1-[5′-[(2S,3S)-N^2-[N-[[(1S)-1-Carboxy-2-indol-3-ylethyl]carbamoyl]-L-alanyl]-N^3-L-methionyl-N^3-methyl-2,3-diaminobutyramido]-3′,5′-dideoxy-α-L-arabinofuranosyl]uracil]
[1]
  MIC (μg/ml) Broth microdilution: 64 µg/mL (≈ 82.7 µM)
[2]
  MIC (μg/ml) Broth microdilution: >512 µg/mL
[4]
  MIC (μg/ml) Broth microdilution: 256 µg/mL (≈ 331 µM)
[5]
  MIC (μg/ml) Broth microdilution: >512 µg/mL
[6]
  MIC (μg/ml) Broth microdilution: >512 µg/mL
[7]
  MIC (μg/ml) Broth microdilution: >512 µg/mL
[8]
  MIC (μg/ml) Broth microdilution: 8 µg/mL (≈ 10.3 µM)
[9]
  MIC (μg/ml) Broth microdilution: 256 µg/mL (≈ 331 µM)
[10]
  MIC (μg/ml) Broth microdilution: 4 µg/mL (≈ 5.17 µM)
Escherichia Coli MC 4100
  MIC (μg/ml) Broth microdilution: >512 µg/mL

## CC(C)[C@H](NC(=O)N[C@@H](Cc1c[nH]c2ccccc12)C(=O)O)C(=O)N[C@H](C(=O)NC[C@H]1C[C@@H](O)[C@H](n2ccc(=O)[nH]c2=O)O1)[C@H](C)N(C)C(=O)[C@H](C)N [Compound 169, 1-[5′-[(2S,3S)-N^3-L-Alanyl-N^2-[N-[[(1S)-1-carboxy-2-indol-3-ylethyl]carbamoyl]-L-valinyl]-N^3-methyl-2,3-diaminobutyramido]-3′,5′-dideoxy-α-L-arabinofuranosyl]uracil]
[1]
  MIC (μg/ml) Broth microdilution: 128 µg/mL (≈ 173 µM)
[2]
  MIC (μg/ml) Broth microdilution: >512 µg/mL
[4]
  MIC (μg/ml) Broth microdilution: 128 µg/mL (≈ 173 µM)
[5]
  MIC (μg/ml) Broth microdilution: 64 µg/mL (≈ 86.3 µM)
[6]
  MIC (μg/ml) Broth microdilution: >512 µg/mL
[7]
  MIC (μg/ml) Broth microdilution: >512 µg/mL
[8]
  MIC (μg/ml) Broth microdilution: 128 µg/mL (≈ 173 µM)
[9]
  MIC (μg/ml) Broth microdilution: 32 µg/mL (≈ 43.1 µM)
[10]
  MIC (μg/ml) Broth microdilution: 2 µg/mL (≈ 2.7 µM)
Escherichia Coli MC 4100
  MIC (μg/ml) Broth microdilution: 256 µg/mL (≈ 345 µM)
